The results in this text go back to patent publication US20260166029A1, “METHODS AND SYSTEMS FOR TREATING DISEASE USING AN ATR/CHK1 SIGNALING PATHWAY INHIBITOR” (Acrivon Therapeutics, Inc., priority 2022, published 2026).

Assay in all cases: Cell Titer Glo 2.0 viability, prexasertib alone or with gemcitabine, three days (Example 11)
What all share (assay type): cell-based

One experiment has as its system OV90-P. The conditions noted are these: Homo sapiens, 72 h. The procedure: (§1) The present Example provides experimental evidence that treatment with gemcitabine sensitizes human cancer cell lines to treatment with prexasertib. A panel of human cancer cell lines were treated with various concentrations of prexasertib (0.17, 0.51, 1.5, 4.6, 13.7, 31.2, 123.5, 370.4, 1111, 3333, and 10000 nM) alone or in combination with various low dose concentrations of gemcitabine (0.53 and 2.7 nM). The panel of cell lines included ovarian, endometrial, bladder, breast, and prostate cancer cell lines. Two ovarian cancer cell lines (OVCAR3 and OV90) were used to generate acquired prexasertib resistant cells. For both cell lines, the parental cells (OVCAR3-P and OV90-P) and acquired prexasertib resistant cells (OVCAR3-R and OV90-R) were tested. Additionally, the panel included three cell lines that are naïve resistant to prexasertib (SW780, T47D, and PC3). After three days of treatment, cell viability relative to DMSO control was assessed using Cell Titer Glo 2.0 (Promega).
(§2) To determine whether gemcitabine and prexasertib acts synergistically, additively, or potentially antagonistically, the panel of human cancer cell lines were treated with various concentrations of prexasertib (0.17, 0.51, 1.5, 4.6, 13.7, 31.2, 123.5, 370.4, 1111, 3333, and 10000 nM) in combination with various concentrations of gemcitabine (1, 3, 13, 67, 333, 1667, 8333 nM). After three days treatment, cell viability relative to DMSO control was assessed using Cell Titer Glo 2.0 (Promega). Drug combination effect was evaluated using SynergyFinder 2.0, see Ianevski et al., Nucleic Acids Res., gkaa216 (2020), and is presented in Table 15 as a Bliss synergy score for each cell line. Bliss synergy scores greater than 10 are indicative of a synergistic effect between prexasertib and gemcitabine, while scores between 10 and −10 are indicative of an additive effect and scores less than −10 are indicative of an antagonistic effect. […] Taken together, the results of this Example support use of a combination of prexasertib and gemcitabine (e.g., low doses of gemcitabine) for treatment of predicted non-responders to prexasertib treatment.

The subject of the next experiment is TCCSUP. The conditions noted are these: Homo sapiens, TCC-SUP, 72 h. As for the experimental part: as §1, §2
In a further experiment the test system is OV90-R. The conditions noted are these: Homo sapiens, 72 h, gemcitabine 0.53 nM, read-out: Prexasertib Relative IC50. The procedure: as §1, §2
A further experiment relates to A2780. The conditions noted are these: Homo sapiens, A2780, 72 h. The procedure: as §1, §2
The mark [1] stands for this setting: gemcitabine 0 nM, read-out: Prexasertib Absolute IC50.
Where [2] appears, read: gemcitabine 0 nM, read-out: Prexasertib Relative IC50.
The mark [3] stands for this setting: gemcitabine 0.53 nM, read-out: Prexasertib Absolute IC50.
Where [4] appears, read: gemcitabine 0.53 nM, read-out: Prexasertib Relative IC50.

Molecules are shown by their SMILES. Where two headings read alike, the source gives them in different places.

By IC50 is commonly meant the concentration needed to halve the response being measured. Consider `COc1cccc(OCCCN)c1-c1cc(Nc2cnc(C#N)cn2)n[nH]1` [prexasertib, 5-(5-(2-(3-aminopropoxy)-6-methoxyphenyl)-1H-pyrazol-3-ylamino)pyrazine-2-carbonitrile], for which the IC50 in the experiment with OV90-P (setting [1]) is 49 nM; in the experiment with OV90-P (setting [2]), 0.5 nM; in the experiment on OV90-P (setting [3]), 0.93 nM; in the experiment on OV90-P (setting [4]) it was 0.14 nM; with TCCSUP (setting [1]) it was 2.8 nM; with TCCSUP (setting [2]) it was 1.4 nM. Further, the IC50 with TCCSUP (setting [3]) was determined as 0.08 nM; in the experiment on TCCSUP (setting [4]), 0.04 nM; in the experiment with OV90-R, 0.03 nM; in the experiment on A2780 (setting [2]) it was 8.5 nM; in the experiment on A2780 (setting [3]) it was 0.5 nM; in the experiment with A2780 (setting [4]), 0.3 nM.
